# Measured values from publication PMC10977726 (PLOS ONE, 2024).
# Read-outs that look alike come from different tables or passages of the source. Where a SMILES comes first, the peptide text is derived from it. Bridges are numbered along the chain shown (N, C = ends).
# Experiments:
# human IgG Fc [1] = biological target: T1, human IgG Fc (Homo sapiens, UniProt P01857); assay: Phage competition ELISA (synthetic DCP vs its own phage); type: binding; conditions: Table S12; synthetic DCP competing with its own phage for biotinylated human IgG Fc on neutravidin plate; absorbance 450 nm; averaged from at least three independent runs
# T1 construct: Biotin-SP-ChromPure Human IgG, Fc fragment; purchased Jackson Immunoresearch Labs Inc. 009060008
# human IgG Fc [2] = biological target: T1, human IgG Fc; assay: SPR; type: binding
# human serum albumin = biological target: T2, human serum albumin (Homo sapiens, UniProt P02768); assay: Phage competition ELISA with phage displaying Hs-CHR-3; type: binding; conditions: Fig 4H
# T2 construct: purchased Rockland Immunochemicals, Inc. 009–0633
# T2 sequence (P02768 25-609): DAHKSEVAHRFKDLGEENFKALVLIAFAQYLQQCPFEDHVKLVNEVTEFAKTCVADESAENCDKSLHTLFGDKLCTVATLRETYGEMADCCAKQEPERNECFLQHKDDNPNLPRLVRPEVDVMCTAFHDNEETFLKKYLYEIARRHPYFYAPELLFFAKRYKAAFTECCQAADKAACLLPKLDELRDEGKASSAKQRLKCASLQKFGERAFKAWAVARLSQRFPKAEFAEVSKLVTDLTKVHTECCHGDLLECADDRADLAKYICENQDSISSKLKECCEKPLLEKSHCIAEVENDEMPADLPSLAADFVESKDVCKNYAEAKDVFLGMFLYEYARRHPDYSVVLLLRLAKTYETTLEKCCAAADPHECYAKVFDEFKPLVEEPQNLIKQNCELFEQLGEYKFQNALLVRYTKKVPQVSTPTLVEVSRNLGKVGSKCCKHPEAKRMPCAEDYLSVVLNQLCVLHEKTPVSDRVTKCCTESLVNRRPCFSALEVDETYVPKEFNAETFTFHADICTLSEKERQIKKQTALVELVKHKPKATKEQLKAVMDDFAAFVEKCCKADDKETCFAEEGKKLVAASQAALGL
# Description: To analyze the competitive binding to the target protein for the synthetic DCP and its phage counterpart displaying the same DCP, 384-well plates were coated with 2 μg/mL of neutravidin in PBS overnight at 4°C. The plates were blocked with PBS containing 0.5% BSA and incubated with biotinylated human IgG Fc or serum albumin for 20 min at room temperature. Serial diluted synthetic DCP was pre-incubated with phage for 30 min at room temperature then the mixture was added to the 384 well plates for 30 min at room temperature. The plates were washed and incubate with anti-M13 antibody (1:10,000, HRP conjugated, Creative Diagnostics, cat# CAB-655M) for 30 min at room temperature, followed by washing, development and quenching (1 M H3PO4). The absorbance at 450 nm was recorded to calculate the IC50 values.
# To further map the binding epitopes of the Ig-DCPs on human IgG Fc, we developed a protein A-human IgG Fc competition ELISA. […] The findings imply Hs-CHR-1 and -3 bind to a similar epitope on human serum albumin, which partially overlap with the SA21 binding site (Fig 4I).
# PDGF bb = biological target: T3, PDGF bb (Homo sapiens, UniProt P01127); assay: SPR; conditions: Table S16; SPR against PDGF bb; averaged from at least three independent runs; estimated KD values due to possible non-specific binding
# T3 construct: purchased R&D Systems BT220-010/CF
# T3 sequence (P01127 82-190 limits assumed): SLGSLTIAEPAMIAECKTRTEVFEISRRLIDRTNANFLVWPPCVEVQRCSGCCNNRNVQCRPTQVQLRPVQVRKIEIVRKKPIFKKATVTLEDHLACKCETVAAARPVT
# Description: (§1) SPR measurements were carried out on a Biacore S200 instrument (GE Healthcare) with PBS-T (PBS with 0.05% Tween 20, pH 7.4) as the assay buffer as described previously. For kinetic measurements, biotinylated protein was captured on three separate sensor channels of a Series S SA Sensor chip (GE Healthcare). The chip was then blocked with 0.1 mg/mL free biotin. A concentration series of the DCP were injected to the chip. Data were double-referenced by subtracting the signal from a control sensor channel (coated with biotin only) and the signal from a buffer injection. Binding data were fitted using the manufacturer’s software (1:1 or two state binding model for single-cycle kinetics or steady-state model for multi-cycle kinetics).
# human VEGF-A = biological target: T4, human VEGF-A (Homo sapiens, UniProt P15692); assay: SPR; type: binding
# T4 construct: biotin-VEGF-A (8–109, Genentech)
# T4 sequence (P15692 214-315): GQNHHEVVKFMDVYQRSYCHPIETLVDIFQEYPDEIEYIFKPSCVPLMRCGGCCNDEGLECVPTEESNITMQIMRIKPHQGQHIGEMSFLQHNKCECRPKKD
# Ly6E-rat IgG Fc = Ly6E-rat IgG Fc (UniProt P20761+Q16553); assay: SPR; set-up: species or system human; conditions: Table S17, first KD value, at least three independent runs, estimated values due to possible non-specific binding, read-out: KD against rat Fc-Ly6E
# Ly6E-rat IgG Fc, sequence (Q16553+P20761 fused): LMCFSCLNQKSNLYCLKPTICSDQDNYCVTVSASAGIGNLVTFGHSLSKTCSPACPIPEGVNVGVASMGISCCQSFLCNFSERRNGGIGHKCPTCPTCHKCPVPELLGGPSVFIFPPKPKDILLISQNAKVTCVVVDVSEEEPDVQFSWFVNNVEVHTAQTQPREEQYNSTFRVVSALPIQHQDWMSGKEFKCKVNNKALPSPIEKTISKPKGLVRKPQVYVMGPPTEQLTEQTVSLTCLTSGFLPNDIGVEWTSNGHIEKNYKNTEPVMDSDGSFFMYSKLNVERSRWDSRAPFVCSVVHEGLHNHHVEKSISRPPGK
# Description: as §1
smiles,measurement,setting,value
CSCC[C@@H]1NC(=O)[C@H](Cc2ccc(O)cc2)NC(=O)[C@H](Cc2c[nH]c3ccccc23)NC(=O)[C@H](Cc2ccc(O)cc2)NC(=O)CNC(=O)[C@@H](NC(=O)CN)CSSC[C@@H]2NC(=O)CNC(=O)[C@H](C)NC(=O)[C@H](CC(C)C)NC(=O)[C@@H]3CSSC[C@@H](C(=O)NCC(=O)O)NC(=O)[C@H](CCC(=O)O)NC(=O)[C@@H]4CCCN4C(=O)[C@H](CCCCN)NC(=O)[C@@H]4CCCN4C(=O)[C@H](CCCNC(=N)N)NC(=O)[C@H](CSSC[C@H](NC(=O)[C@H](Cc4ccccc4)NC(=O)[C@H](Cc4c[nH]c5ccccc45)NC(=O)[C@H](CCC(N)=O)NC1=O)C(=O)N[C@@H](CCCCN)C(=O)N[C@@H](CCC(N)=O)C(=O)N[C@@H](CC(=O)O)C(=O)N[C@@H](CO)C(=O)N[C@@H](CC(=O)O)C(=O)N3)NC(=O)[C@H](C(C)C)NC2=O [Ig-EET-4],IC50,human IgG Fc [1],823 nM
same,Kd,"human IgG Fc [2]; Table S12, SPR Biacore S200, PBS-T pH 7.4, biotinylated protein on SA chip, averaged from at least three independent runs, N.A. = no detectable binding, * estimated value due to possible non-specific binding, read-out: KD",948 nM
CC[C@H](C)[C@H](NC(=O)[C@H](CC(C)C)NC(=O)[C@@H](N)CCCNC(=N)N)C(=O)N[C@@H](CCC(=O)O)C(=O)N[C@@H](CC(=O)O)C(=O)N[C@H](C(=O)N[C@H]1CSSC[C@@H](C(=O)N[C@@H](CC(C)C)C(=O)N[C@@H](Cc2c[nH]c3ccccc23)C(=O)N[C@@H](CCC(=O)O)C(=O)N[C@@H](CC(=O)O)C(=O)N[C@@H](CC(=O)O)C(=O)O)NC(=O)CNC(=O)[C@H](Cc2c[nH]c3ccccc23)NC(=O)[C@H](CCCNC(=N)N)NC(=O)[C@@H]2CCCN2C(=O)[C@H](CC(C)C)NC1=O)[C@@H](C)CC [SA21] (H-RLIEDICLPRWGCLWEDD-OH; disulfide 7-13 (inferred); N-terminus and C-terminus assumed),inhibition of interaction between biotinylated human serum albumin and phage displaying Hs-CHR-3,human serum albumin,partially disrupted
"CC[C@H](C)[C@@H]1NC(=O)[C@H](C)NC(=O)[C@H](CO)NC(=O)[C@@H]2CSSC[C@@H]3NC(=O)[C@H](Cc4ccc(O)cc4)NC(=O)CNC(=O)[C@H](Cc4ccccc4)NC(=O)[C@H](CCC(N)=O)NC(=O)[C@H](CO)NC(=O)[C@H](CSSC[C@H](NC(=O)[C@H](CCC(=O)O)NC(=O)CNC(=O)[C@@H](N)C(C)C)C(=O)N[C@@H](C(C)C)C(=O)N[C@@H](CCCNC(=N)N)C(=O)NCC(=O)N[C@@H](CCCNC(=N)N)C(=O)N2)NC(=O)[C@H](CSSC[C@@H](C(=O)NCC(=O)O)NC(=O)[C@H](Cc2ccc(O)cc2)NC(=O)[C@H](CCCCN)NC(=O)[C@@H]2CCCN2C(=O)CNC(=O)[C@H](CCCCN)NC(=O)CNC3=O)NC(=O)[C@H](CO)NC1=O [Ig-AMP-2] (H-VGECVRGRCSAISCCSQFGYCGKGPKYCG-OH; disulfide 4-15, 9-21, 14-28)",KD,"human IgG Fc [2]; Table S12, SPR Biacore S200, PBS-T pH 7.4, biotinylated protein on SA chip, averaged from at least three independent runs, N.A. = no detectable binding, * estimated value due to possible non-specific binding",aggregation
"CSCC[C@@H]1NC(=O)[C@H](CC(C)C)NC(=O)[C@H](CCCNC(=N)N)NC(=O)[C@H](CO)NC(=O)[C@@H]2CSSC[C@@H]3NC(=O)[C@H](CO)NC(=O)CNC(=O)[C@H]([C@@H](C)O)NC(=O)[C@H](CSSC[C@H](N)C(=O)N[C@@H](CCCCN)C(=O)NCC(=O)N[C@@H](CCCCN)C(=O)NCC(=O)N[C@@H](C)C(=O)N[C@@H](CCCCN)C(=O)N2)NC(=O)[C@H](CSSC[C@@H](C(=O)O)NC(=O)[C@H](CCCCN)NC(=O)CNC(=O)[C@H](CO)NC(=O)[C@H](CCCNC(=N)N)NC3=O)NC(=O)[C@H](CC(=O)O)NC(=O)[C@H](Cc2ccc(O)cc2)NC1=O [W T CON, reference compound]",Kd,human IgG Fc [2],> 20000 nM
"CC[C@H](C)[C@@H]1NC(=O)[C@H](Cc2ccccc2)NC(=O)[C@@H]2CCCN2C(=O)[C@H](CC(N)=O)NC(=O)[C@H](CC(=O)O)NC(=O)[C@H](CC(=O)O)NC(=O)[C@H](Cc2ccccc2)NC(=O)[C@@H](NC(=O)CN)CSSC[C@@H]2NC(=O)CNC(=O)[C@H](C)NC(=O)[C@H](CC(C)C)NC(=O)[C@@H]3CSSC[C@@H](C(=O)NCC(=O)O)NC(=O)[C@H](Cc4c[nH]c5ccccc45)NC(=O)[C@H]([C@@H](C)O)NC(=O)[C@H](CC(=O)O)NC(=O)[C@H](Cc4ccc(O)cc4)NC(=O)[C@H](Cc4c[nH]c5ccccc45)NC(=O)[C@H](CSSC[C@H](NC(=O)[C@H](C)NC1=O)C(=O)N[C@@H](CCCCN)C(=O)N[C@@H](CCC(N)=O)C(=O)N[C@@H](CC(=O)O)C(=O)N[C@@H](CO)C(=O)N[C@@H](CC(=O)O)C(=O)N3)NC(=O)[C@H](C(C)C)NC2=O [P-EET-6] (H-GCFDDNPFIACKQDSDCLAGCVCWYDTWCG-OH; disulfide 2-21, 11-23, 17-29)",Kd,PDGF bb,> 6700 nM
"CC[C@H](C)[C@@H]1NC(=O)[C@H]([C@@H](C)O)NC(=O)[C@H](Cc2ccccc2)NC(=O)[C@@H]2CCCN2C(=O)[C@H](Cc2ccccc2)NC(=O)[C@H](Cc2c[nH]c3ccccc23)NC(=O)[C@@H]2CCCN2C(=O)[C@H]([C@@H](C)O)NC(=O)[C@H](CCSC)NC(=O)[C@@H](NC(=O)CN)CSSC[C@@H]2NC(=O)CNC(=O)[C@H](C)NC(=O)[C@H](CC(C)C)NC(=O)[C@@H]3CSSC[C@@H](C(=O)NCC(=O)O)NC(=O)[C@H](Cc4ccccc4)NC(=O)CNC(=O)[C@H](CC(N)=O)NC(=O)[C@@H]4CCCN4C(=O)CNC(=O)[C@H](CSSC[C@H](NC(=O)[C@H](CC(N)=O)NC1=O)C(=O)N[C@@H](CCCCN)C(=O)N[C@@H](CCC(N)=O)C(=O)N[C@@H](CC(=O)O)C(=O)N[C@@H](CO)C(=O)N[C@@H](CC(=O)O)C(=O)N3)NC(=O)[C@H](C(C)C)NC2=O [V-EET-3] (H-GCMTPWFPFTINCKQDSDCLAGCVCGPNGFCG-OH; disulfide 2-23, 13-25, 19-31)",Kd,"human VEGF-A; Table S16, SPR against VEGF-A, averaged from at least three independent runs, estimated KD values due to possible non-specific binding, read-out: KD",> 1500 nM
CC[C@H](C)[C@@H]1NC(=O)[C@H](C(C)C)NC(=O)[C@H](Cc2c[nH]cn2)NC(=O)[C@H](Cc2ccc(O)cc2)NC(=O)[C@H](CCC(=O)O)NC(=O)[C@H](CCC(N)=O)NC(=O)[C@H](CC(=O)O)NC(=O)[C@H]([C@@H](C)O)NC(=O)[C@H](C)NC(=O)[C@H](Cc2c[nH]c3ccccc23)NC(=O)[C@H](C(C)C)NC(=O)[C@H](C)NC(=O)[C@H](CO)NC(=O)[C@@H]2CSSC[C@@H]3NC(=O)[C@H](CO)NC(=O)CNC(=O)[C@H]([C@@H](C)O)NC(=O)[C@H](CSSC[C@H](N)C(=O)N[C@@H](CCCCN)C(=O)NCC(=O)N[C@@H](CCCCN)C(=O)NCC(=O)N[C@@H](C)C(=O)N[C@@H](CCCCN)C(=O)N2)NC(=O)[C@H](CSSC[C@@H](C(=O)O)NC(=O)[C@H](CCCCN)NC(=O)CNC(=O)[C@H](CO)NC(=O)[C@H](CCCNC(=N)N)NC3=O)NC1=O [V-CON-1],Kd,human VEGF-A,> 4600 nM
CC[C@H](C)[C@@H]1NC(=O)[C@H](C)NC(=O)[C@@H](NC(=O)CN)CSSC[C@@H]2NC(=O)CNC(=O)[C@H](C)NC(=O)[C@H](CC(C)C)NC(=O)[C@@H]3CSSC[C@@H](C(=O)NCC(=O)O)NC(=O)[C@H](Cc4ccccc4)NC(=O)CNC(=O)[C@H](CC(N)=O)NC(=O)[C@@H]4CCCN4C(=O)CNC(=O)[C@H](CSSC[C@H](NC(=O)[C@H](CCC(N)=O)NC(=O)[C@H](Cc4ccccc4)NC(=O)[C@H](CCSC)NC(=O)[C@H](Cc4c[nH]c5ccccc45)NC(=O)CNC(=O)[C@H](CCSC)NC(=O)[C@H](Cc4c[nH]cn4)NC(=O)[C@H](Cc4ccc(O)cc4)NC1=O)C(=O)N[C@@H](CCCCN)C(=O)N[C@@H](CCC(N)=O)C(=O)N[C@@H](CC(=O)O)C(=O)N[C@@H](CO)C(=O)N[C@@H](CC(=O)O)C(=O)N3)NC(=O)[C@H](C(C)C)NC2=O [L-EET-7],Kd,Ly6E-rat IgG Fc,22 nM
